Measured values: patent publication US20160279110A1, “COMPOSITIONS AND METHODS FOR TREATING CANCER” (UNIVERSITY OF ROCHESTER, priority 2015, published 2016)

System: UPF1
Assay: Western blot of UPF1 cleavage and phosphorylation in MCF7 cells
Format: cell-based, human
Protocol: MCF7 cells either were (top line) or were not (bottom line) pretreated with 5 μM doxorubicin for 1 h before addition of 3 μg ml^−1 actinomycin D to halt transcription. Cells were collected at the indicated times after actinomycin D addition. […] Error bars=S.E.M, n==4 independent biological quadruplicates. […] HeLa Tet-off cells were transfected with plasmids encoding human β-Gl Norm mRNA and MUP mRNA or β-Gl Ter mRNA and MUP mRNA. β-Gl Norm and β-Gl 39 Ter mRNA transcription occurs under the agency of the non-stress-responsive Tet-off promoter. Cells were either pretreated with nothing (top), 50 μM doxorubicin for 1 h (middle) or 50 μg ml^−1 puromycin for 3 h (bottom) before transcriptional shut-off with 2 μg ml^−1 doxycycline. Cell aliquots were removed at the indicated “chase” time points, and RT-qPCR was used to assess the remaining levels of β-Gl Norm and β-Gl Ter mRNAs, each after normalization to MUP mRNA.
UPF1 CP may result from cleavage of endogenous UPF1 or the transfected construct, but the use of anti-FLAG allows unambiguous assignment of UPF1-FLAG CP as derived from MYC-UPF1-FLAG. α, anti; h, hour(s). […] To serve as molecular weight standards for UPF1 CP, lysates of MCF7 cells transiently expressing a UPF1-FLAG protein encompassing the residues specified were also analyzed. […] The D37 cleavage site encompassing P4-P1 residues is boxed. […] Immunoblots are representative of at least 2 independent experiments.
Cells were lysed, and protein was isolated using hypotonic buffer that consists of 10 mM Tris-C1, pH 7.4, 10 mM NaCl, 2 mM EDTA, 0.5% Triton X-100, 2 mM benzamidine, 1 mM PMSF, NEM (50 μg/mL), 1× phosphatase inhibitor cocktail (Roche), and 1× protease inhibitor cocktail (Roche; Basel, Switzerland). After 10 minutes of incubation at 4° C., NaCl was added to 150 mM, and lysates were cleared by centrifugation. Proteins were resolved using SDS-PAGE, transferred to Hybond ECL nitrocellulose (GE), and probed using antibody that recognizes one of the following: UPF1(1-416) (1:2000^8), p-UPF1 S1116 (1:1000; Millipore 07-1016; Billerica, Mass.), p-UPF1 S1089 (1:1000; Millipore 07-1015), Calnexin (1:2000; Enzo Life Sciences ADISPA860; Farmingdale, N.Y.), UPF2 (1:200; Santa Cruz Biotechnology C18 20227; Dallas, Tex.), UPF3× and 3 (1:1000^8), MLN51 (1:1000; Bethyl Laboratories A302-471; Montgomery, Tex.), GAPDH (1:200; Santa Cruz Biotechnology 25778), CBP80 (1:1000; Bethyl Laboratories A301-793), SMG5 (1:1000; Abcam 33033; Cambridge, United Kingdom), SMG6 (1:1000; Abcam 57539), SMG7 (1:1000; Bethyl Laboratories 302-170A), SMG1 (1:1000; Cell Signaling D42D5; Danvers, Mass.), Cleaved Caspase 3 (1:1000; Cell Signaling 9664), Cleaved Caspase 9 (1:1000; Cell Signaling 7237), PARP (1:1000; Cell Signaling 9542), Cleaved PARP (1:200; Santa Cruz Biotechnology sc56196) PLC-γ1 (1:200; Santa Cruz Biotechnology 58407), α-Tubulin (1:1000; Cell Signaling 3873P), FLAG (1:5000; Sigma, clone M2 a5982), HA (1:5000; Roche, clone 3F10 12013819001), or MYC (1:1000; Cell Signaling, clone 9B110 2276). Immunoreactivity was assessed using SuperSignal West Pico or Femto (Pierce Biotechnology; Waltham, Mass.).
Biochemical changes to the key NMD factor, UPF1, that correlate with doxorubicin treatment (FIG. 1c), were examined. MCF7 cells were exposed to doxorubicin (5 μM) for varying amounts of time and cell lysates were analyzed using western blotting and an in-house generated polyclonal rabbit serum raised against the N-terminal 416 amino acids of human UPF1. […]

COc1cccc2c1C(=O)c1c(O)c3c(c(O)c1C2=O)C[C@@](O)(C(=O)CO)C[C@@H]3O[C@H]1C[C@H](N)[C@H](O)[C@H](C)O1 [doxorubicin, Doxorubicin]
time at which UPF1 phosphorylation (S1116) levels diminish (MCF7, 5 μM doxorubicin): ≤ 5 h | time at which two additional UPF1 bands of greater mobility were resolved (MCF7, 5 μM doxorubicin): ≤ 5 h | time at which higher-mobility UPF1 species were generated (MCF7, 50 μM doxorubicin): ≤ 2 h | time of production of the PARP cleavage product (MCF7, 50 μM doxorubicin): 8 h | UPF1 CP level relative to uncleaved UPF1 (MCF7 stably transduced with MYC-UPF1-FLAG WT, 5 μM doxorubicin 16 h): about one-third the level of uncleaved UPF1
